The text below walks through data of patent US10105367B2, “Therapeutic thiophene-, furan-, and pyridine-fused azolopyrimidin-5-(6h)-ones” (Dart Neuroscience (Cayman) Ltd., priority 2012, dated 2018).

The target in the first experiment is human PDE1B (Homo sapiens (Human), UniProt Q01064). As to the kind of experiment: PDE1B inhibitory assay (IMAP TR-FRET). Conditions: PDE1B pIC50, negative log of half-maximal molar inhibitory concentration; 200 nM FAM-cAMP, Calmodulin, CaCl2.
Description: PDE1B inhibition was determined by an IMAP TR-FRET assay.
After a brief centrifugation, the plates were incubated for 30 minutes at room temperature. The assay was terminated by adding 5 μL IMAP binding reagent/Tb complex (Molecular Devices, Sunnyvale, Calif.) to each well.
Plates were incubated 1 hour at room temperature and read on a Viewlux multimode plate reader (Perkin Elmer). The instrument was set to excite using the DUG11 filter and measure using 490/10 nm and 520/10 nm filters. Ratios of acceptor and donor were then calculated.
For IC50 calculations, the values of % efficacy versus a series of compound concentrations were then plotted using non-linear regression analysis of sigmoidal dose-response curves generated with the equation Y=B+(T−B)/1+10((Log EC50−X)×Hill Slope), where Y=percent activity, B=minimum percent efficacy, T=maximum percent efficacy, X=logarithm of compound and Hill Slope=slope factor or Hill coefficient. The IC50 value was determined by the concentration causing a half-maximal percent efficacy.
The molecule `COc1ccc(Cn2c(=O)n3ncnc3c3c(C)c(Br)sc32)cc1` [Example 76, 8-Bromo-6-(4-methoxybenzyl)-9-methylthieno[3,2-e][1,2,4]triazolo[1,5-c]pyrimidin-5(6H)-one] showed an IC50 of 100 to 1000 nM. In turn, `COc1ccc(Cn2c(=O)n3ncnc3c3c(C)c(CO)sc32)cc1` [Example 77, 8-(Hydroxymethyl)-6-(4-methoxybenzyl)-9-methylthieno[3,2-e][1,2,4]triazolo[1,5-c]pyrimidin-5(6H)-one] gave an IC50 of 100 to 1000 nM. For `COc1ccc(Cn2c(=O)n3ncnc3c3c(CN4C[C@@H](C)O[C@@H](C)C4)csc32)cc1` [Example 78, 9-(((2S,6R)-2,6-Dimethylmorpholino)methyl)-6-(4-methoxybenzyl)thieno[3,2-e][1,2,4]triazolo[1,5-c]pyrimidin-5(6H)-one], the IC50 is 100 to 1000 nM. On to `Cc1oc2c(c1C)c1ncnn1c(=O)n2Cc1ccc(Cl)cc1` [Example 79, 6-(4-Chlorobenzyl)-8,9-dimethylfuro[3,2-e][1,2,4]triazolo[1,5-c]pyrimidin-5(6H)-one], for which the IC50 is 100 to 1000 nM. Molecule `O=c1n(Cc2ccccc2Cl)c2sc3c(c2c2ncnn12)CCCC3` [Example 81] had an IC50 of 1000 to 10000 nM. For `CC1(C)Cc2c(sc3c2c2ncnn2c(=O)n3Cc2ccc(Cl)cc2)CO1` [Example 83], the IC50 lay within 100 to 1000 nM.

With `O=c1n(Cc2ccccc2)c2sc3c(c2c2ncnn12)CCCC3` [Example 84], the IC50 was in the range of 100 to 1000 nM. The same measure, in the same setting: in the case of `O=c1n(Cc2cccc(Cl)c2)c2sc3c(c2c2ncnn12)CCCC3` [Example 85] it was 100 to 1000 nM.

In the case of `O=c1n(Cc2ccc(-c3ccccc3)cc2)c2sc3c(c2c2ncnn12)CCCC3` [Example 86], the IC50 was 1000 to 10000 nM.

`O=c1n(Cc2ccc(Cl)cc2)c2sc3c(c2c2ncnn12)CCOC3` [Example 87]: the half-maximal inhibitory concentration (IC50) lay within 100 to 1000 nM. Same read-out and setting: in the case of `Cc1ccc(Cn2c(=O)n3ncnc3c3c4c(sc32)COCC4)cc1` [Example 88] it was 100 to 1000 nM. Take `O=c1n(Cc2ccc(C(F)(F)F)cc2)c2sc3c(c2c2ncnn12)CCOC3` [Example 89]: the IC50 lay in the range of 1000 to 10000 nM. With `O=c1n(Cc2ccc(Cl)c(Cl)c2)c2sc3c(c2c2ncnn12)CCOC3` [Example 91], the IC50 was in the range of 100 to 1000 nM.

`O=c1n(Cc2ccc(F)cc2)c2sc3c(c2c2ncnn12)CCOC3` [Example 92] gave an IC50 of 1000 to 10000 nM. `O=c1n(Cc2ccc(Cl)c(F)c2)c2sc3c(c2c2ncnn12)CCOC3` [Example 93]: the IC50 lay within 100 to 1000 nM. Regarding `O=c1n(Cc2ccc(Cl)cc2F)c2sc3c(c2c2ncnn12)CCOC3` [Example 94], the IC50 fell in the range of 100 to 1000 nM. With `COc1ccc(Cn2c(=O)n3ncnc3c3c4c(sc32)COCC4)cc1F` [Example 95], the IC50 lay within 100 to 1000 nM. For `O=c1n(Cc2ccc(OC(F)(F)F)cc2)c2sc3c(c2c2ncnn12)CCOC3` [Example 96], the IC50 lay in the range of 1000 to 10000 nM. With `CCOc1ccc(Cn2c(=O)n3ncnc3c3c4c(sc32)COCC4)cc1` [Example 97], the half-inhibitory concentration (IC50) is 1000 to 10000 nM. On to `O=c1n(Cc2ccc(Cl)cc2)c2sc3c(c2c2ncnn12)CCNC3` [Example 99, 6-(4-Chlorobenzyl)-8,9,10,11-tetrahydropyrido[4′,3′:4,5]thieno[3,2-e][1,2,4]triazolo[1,5-c]pyrimidin-5(6H)-one], for which the IC50 was 1000 to 10000 nM. Turning to `COc1ccc(Cn2c(=O)n3ncnc3c3c4c(sc32)NCCC4)cc1OC` [Example 100], the IC50 fell in the range of 1000 to 10000 nM. `O=c1n(Cc2ccc(Cl)cc2)c2sc3c(c2c2ncnn12)CCN(CC(F)(F)F)C3` [Example 107] showed an IC50 of 100 to 1000 nM. For `COc1ccc(Cn2c(=O)n3ncnc3c3c4c(sc32)CN(Cc2ccc3c(c2)OC(F)(F)O3)CC4)cc1` [Example 114], the half-maximal inhibitory concentration (IC50) is 100 to 1000 nM. For the molecule `COc1ccc(Cn2c(=O)n3ncnc3c3c4c(sc32)CN(C2CS(=O)(=O)C2)CC4)cc1` [Example 124], the IC50 is 100 to 1000 nM.

Staying with this experiment, now noted: negative log of half-maximal molar inhibitory concentration; 200 nM FAM-cAMP, Calmodulin, CaCl2.
For `COc1ccc(Cn2c(=O)n3ncnc3c3c(C)c(CN4CCN(C)C(C)(C)C4)sc32)cc1` [Example 74], the “PDE1B pIC50” value is recorded as greater than 7. In the case of `COc1ccc(Cn2c(=O)n3ncnc3c3c(C)c(CN4CCN5CCC[C@H]5C4)sc32)cc1` [Example 75], the “PDE1B pIC50” value was greater than 7. On the same count and under the same terms, to `COc1ccc(Cn2c(=O)n3ncnc3c3c4c(sc32)CN(C(=O)OC(C)(C)C)CC4)cc1` [Example 80, tert-Butyl 6-(4-methoxybenzyl)-5-oxo-5,6,10,11-tetrahydropyrido[4′,3′:4,5]thieno[3,2-e][1,2,4]triazolo[1,5-c]pyrimidine-9(8H)-carboxylate] belongs greater than 7. As for `COc1ccc(Cn2c(=O)n3ncnc3c3c4c(sc32)COCC4)cc1` [Example 90], the “PDE1B pIC50” value is recorded as greater than 7. `COc1c(F)cc(Cn2c(=O)n3ncnc3c3c4c(sc32)COCC4)cc1F` [Example 98]: the “PDE1B pIC50” value is reported as less than 5. Same read-out and setting: to `COc1ccc(Cn2c(=O)n3ncnc3c3c4c(sc32)CN(Cc2nnc(C)s2)CC4)cc1` [Example 108] belongs greater than 7; to `COc1ccc(Cn2c(=O)n3ncnc3c3c4c(sc32)CN(CC2CC2)CC4)cc1` [Example 110], greater than 7. Regarding `COc1ccc(Cn2c(=O)n3ncnc3c3c4c(sc32)CN(CC2(C)COC2)CC4)cc1` [Example 111], the “PDE1B pIC50” value was greater than 7. As to `COc1ccc(Cn2c(=O)n3ncnc3c3c4c(sc32)CN(CCCSC)CC4)cc1` [Example 112], the “PDE1B pIC50” value was greater than 7.

Turning to `COc1ccc(Cn2c(=O)n3ncnc3c3c4c(sc32)CN(CC2CCOC2)CC4)cc1` (centres unmarked) [Example 113], the “PDE1B pIC50” value is greater than 7. The same measure, in the same setting: in the case of `COc1ccc(Cn2c(=O)n3ncnc3c3c4c(sc32)CN(CC(C)(C)C)CC4)cc1` [Example 115] it was greater than 7; in that of `COc1ccc(Cn2c(=O)n3ncnc3c3c4c(sc32)CN(Cc2ncccn2)CC4)cc1` [Example 116], greater than 7; in that of `COc1ccc(Cn2c(=O)n3ncnc3c3c4c(sc32)CN(CC2CCCCO2)CC4)cc1` (centres unmarked) [Example 117], greater than 7. Take `COc1ccc(Cn2c(=O)n3ncnc3c3c4c(sc32)CN(CCCS(C)(=O)=O)CC4)cc1` [Example 118]: the “PDE1B pIC50” value was greater than 7.

For the molecule `COc1ccc(Cn2c(=O)n3ncnc3c3c4c(sc32)CN(Cc2ccncn2)CC4)cc1` [Example 119], the “PDE1B pIC50” value is greater than 7.

With `COc1ccc(Cn2c(=O)n3ncnc3c3c4c(sc32)CN(Cc2ccccn2)CC4)cc1` [Example 120], the “PDE1B pIC50” value is recorded as greater than 7.

Turning to `COc1ccc(Cn2c(=O)n3ncnc3c3c4c(sc32)CN(Cc2ccncc2)CC4)cc1` [Example 121], the “PDE1B pIC50” value was greater than 7. Regarding `COc1ccc(Cn2c(=O)n3ncnc3c3c4c(sc32)CN(Cc2nccn2C)CC4)cc1` [Example 122], the “PDE1B pIC50” value is listed as greater than 7. Consider `COc1ccc(Cn2c(=O)n3ncnc3c3c4c(sc32)CN(Cc2scnc2C)CC4)cc1` [Example 123], for which the “PDE1B pIC50” value is reported as greater than 7.

In the case of `COc1ccc(Cn2c(=O)n3ncnc3c3c4c(sc32)CN(CC2COCCO2)CC4)cc1` (centres unmarked) [Example 125], the “PDE1B pIC50” value is greater than 7. The same measure, in the same setting: in the case of `COc1ccc(Cn2c(=O)n3ncnc3c3c4c(sc32)CN(CC2CCC(=O)O2)CC4)cc1` (centres unmarked) [Example 126] it was greater than 7; in that of `COc1ccc(Cn2c(=O)n3ncnc3c3c4c(sc32)CN(Cc2ccc(F)cc2)CC4)cc1` [Example 127], greater than 7. In the case of `COc1ccc(Cn2c(=O)n3ncnc3c3c4c(sc32)CN(Cc2ccccc2F)CC4)cc1` [Example 128], the “PDE1B pIC50” value was greater than 7. As for `O=c1n(Cc2ccc(Cl)cc2F)c2sc3c(c2c2ncnn12)CCN(Cc1ccccn1)C3` [Example 130], the “PDE1B pIC50” value is recorded as greater than 7. The same measure, in the same setting: in the case of `Cn1ccnc1CN1CCc2c(sc3c2c2ncnn2c(=O)n3Cc2ccc(Cl)cc2F)C1` [Example 131] it was greater than 7; in that of `O=c1n(Cc2ccc(Cl)cc2F)c2sc3c(c2c2ncnn12)CCN(Cc1ncccn1)C3` [Example 132], greater than 7; in that of `COc1ccc(Cn2c(=O)n3ncnc3c3c4c(sc32)CN(CC2CCCOC2)CC4)cc1` (centres unmarked) [Example 134], greater than 7. The same measure, in the same setting: to `COc1ccc(Cn2c(=O)n3ncnc3c3c4c(sc32)CN(CC2CCCOC2)CC4(F)F)cc1` (centres unmarked) [Example 136] belongs greater than 7. Turning to `COc1ccc(Cn2c(=O)n3ncnc3c3c4c(sc32)CN(Cc2ncccn2)CC4)c(F)c1` [Example 137], the “PDE1B pIC50” value is given as greater than 7. On the same count and under the same terms, to `COc1ccc(Cn2c(=O)n3ncnc3c3c4c(sc32)CN(Cc2nccn2C)CC4)c(F)c1` [Example 138] belongs greater than 7; to `COc1ccc(Cn2c(=O)n3ncnc3c3c4c(sc32)CN(Cc2ccccn2)CC4)c(F)c1` [Example 139], greater than 7; to `COc1ccc(Cn2c(=O)n3ncnc3c3c4c(sc32)CN(CC2CCOC2)CC4)c(F)c1` (centres unmarked) [Example 140], greater than 7. Still for that read-out and setting: in the case of `COc1ccc(Cn2c(=O)n3ncnc3c3c4c(sc32)CN(CC2CCCOC2)CC4)c(F)c1` (centres unmarked) [Example 142] it was greater than 7.

For the molecule `COc1ccc(Cn2c(=O)n3ncnc3c3c4c(sc32)CN(CC2CCOC2)CCC4)cc1` (centres unmarked) [Example 143], the “PDE1B pIC50” value is listed as greater than 7. Take `COc1ccc(Cn2c(=O)n3ncnc3c3c4c(sc32)CN(Cc2nccn2C)CCC4)cc1` [Example 144]: the “PDE1B pIC50” value is greater than 7. In the case of `COc1ccc(Cn2c(=O)n3ncnc3c3c4c(sc32)CN(Cc2ncccn2)CCC4)cc1` [Example 145], the “PDE1B pIC50” value is listed as greater than 7. Consider `COc1ccc(Cn2c(=O)n3ncnc3c3c4c(sc32)CN(Cc2ccccn2)CCC4)cc1` [Example 146], for which the “PDE1B pIC50” value is recorded as greater than 7.

In the case of `COc1ccc(Cn2c(=O)n3ncnc3c3c4c(sc32)CN(CC2CCOCC2)CCC4)cc1` [Example 147], the “PDE1B pIC50” value was greater than 7.

Regarding `COc1ccc(Cn2c(=O)n3ncnc3c3c4c(sc32)N(CC2CCOCC2)CCC4)cc1` [Example 148], the “PDE1B pIC50” value is greater than 7.

For the molecule `COc1ccc(Cn2c(=O)n3ncnc3c3c4c(sc32)N(CC2CCCOC2)CCC4)cc1` (centres unmarked) [Example 149], the “PDE1B pIC50” value is reported as greater than 7. As to `COc1ccc(Cn2c(=O)n3ncnc3c3c4c(sc32)N(CC2CCOC2)CCC4)cc1` (centres unmarked) [Example 150], the “PDE1B pIC50” value is given as greater than 7.
